Measurements: patent publication US10092591B2, “Methods and compositions for the treatment of ischemic injury to tissue using therapeutic hypothermia” (University of Alaska Fairbanks, priority 2014, dated 2018)
Where two headings read alike, the source gives them in different places.

Experiments:
Male Sprague-Dawley rats [1] = experiment: Continuous CHA delivery through iPRECIO pumps at Ta 16° C. or 25° C., with 8-SPT injection; assay type: in vivo, rat; conditions: for mean minimum Tb: continuous CHA via SQ minipump, equivalent to 1 mg/kg every 4 hr, 24 hr
Description: To determine if the effects of CHA on heart rate were due to direct effects of CHA on the heart or to the effects of tissue temperature, programmable minipumps were employed to deliver CHA continuously for 24 hr at an ambient temperature of 25° C. and 16° C. […] For these experiments a separate group of rats was instrumented with programmable iPRECIO® pumps (DSI, St. Paul, Minn.). CHA was dissolved in 25% (w/v) hydroxypropyl-β-cyclodextrin (CD) in sterile water and 8-SPT was dissolved in 0.9% saline. Pumps delivered the same mass of CHA as in the first experiment (6 mg/kg over a 24 hr period), however, in this case CHA was delivered at a constant rate of 30 μL/hr. Heart rate (HR) and hemoglobin saturation (sO2) was monitored using a pulse oximeter every 10 min for 1 hr following a single injection of 8-SPT (25 mg/kg, i.p.) or vehicle as indicated. As before, animals in both treatment and control groups were moved to an ambient temperature (Ta) of 16° C. or 25° C. the day before the experiment and remained at this Ta until return to a Ta of 20° C., 4 hr after the end of drug delivery. Drug and vehicle treatments were administered to all animals using a balanced cross-over design. At least 1 week separated CHA and vehicle (CD) treatment and 1 hr separated 8-SPT and vehicle (saline) injections. A pulse oximeter (Vet/Ox […], Model 72042A3 Sensor Devices Inc., Lancaster, Pa.) was used to monitor heart rate (HR) and sO2. Pulse oximetry was acquired via a sensor on the paw.

[2] = rabbit; Liu G S et al., 1991; cited from earlier work
Male Sprague-Dawley rats [3] = experiment: Sustained hypothermia in conscious rats, drug delivery via sequential i.p. injections; assay type: in vivo
[4] = tested on: rats subjected to 8 min of asphyxial cardiac arrest; experiment: Therapeutic hypothermia in rats subjected to 8 min asphyxial cardiac arrest; assay type: in vivo, rat
Description: Rats aged 68-75 days were subjected to 8 min of asphyxial cardiac arrest and animals that were resuscitated within 120 sec and met additional inclusion criteria 60 min after ROSC (Table 1) were randomly allocated to a therapeutic hypothermia (TH) or a normothermic control (NC) group using a computer-generated randomization schedule without knowledge of outcome. Treatment commenced 70 min after restoration of spontaneous circulation (ROSC).
Animals assigned to the TH group were moved to 16° C. and CHA and 8-SPT delivered as described above for Drug delivery via sequential IP injections. Animals assigned to the NC group were moved to a neonatal incubator set to 29° C. and vehicles (PB and saline) delivered as described above for the control group. At the end of 24 hr the rats were moved to and housed an ambient temperature of 20° C. for 7 days until they were euthanized for tissue collection. Body temperature was monitored prior to each injection throughout treatment and daily thereafter using sc IPTT-300 transponders (BioMedic Data Systems, Inc. Seaford, Del.).
ACA was induced as described by Dave et al., 2006. Animals were anesthetized with 5% isofluorane and a 30:70 mixture of O2 and N2O followed by endotracheal intubation and mechanical ventilation. The femoral vein and artery were cannulated for continuous blood pressure monitoring and blood gas analysis. ECG leads were attached to the limbs. Physiological variables, including but not limited to PaCO2, PaO2, and pH were maintained within normal limits by adjusting respiratory rate and volume. MABP and ECG were monitored continuously. Temporalis muscle and rectal temperatures were maintained at 36.5-37.5° C. by heating lamps and Omega (Stamford, Conn.) T-CSC32 temperature controllers. To induce cardiac arrest, vecuronium (1 mg/kg) was injected I.V. and apnea was induced by disconnecting the ventilator from the endotracheal tube. Resuscitation was initiated by reconnecting the ventilator, administering epinephrine (0.01 mg/kg, I.V.) and sodium bicarbonate (1 mg/kg, I.V.) mechanically ventilating with 100% O2 at a rate of 80 bpm and manual chest compressions until MABP reached 50 mm Hg and was maintained by a spontaneously beating heart for more than 10 sec. After 10 min of ROSC, ventilation was decreased to 60 bpm and O2 lowered to 30%. Naïve animals were subjected to similar surgical procedures except that the ventilator was not disconnected from the endotracheal tube.
Post-operative (post-op) rats subjected to 6 min and 8 min CA and not assigned to hypothermia experiments were placed in a neonatal incubator overnight with only water provided (0.9% saline, I.P. based off […] body weight was injected at the end of surgery to prevent dehydration). After 8-16 hr, animals were fed, weighed, cleaned, and had neurological deficit scores (NDS) analyzed daily for 7 days beginning 2 hr post ROSC. Rats were fed a 50:50 mix of rodent chow and sugar mixed with water to create a soup, which was placed into small petri dishes to allow animals to self-feed. Animals that were unable to feed themselves were assisted via spoon-feeding. Spoon-feeding involved using a gavage needle and a 3 cc syringe to slowly and carefully inject the liquid soup material into the rat's mouth allowing their “swallow-reflex” to determine how much food was given.
Behavioral Neurological Deficit Scores (NDS) were taken daily for 7 days after asphyxial cardiac arrest to assess injury. The total NDS consists of five components: consciousness and respiration, cranial nerve function, motor function, sensory function, and coordination (leg/tail movement, cleaning, depth perception, and righting reflex) as previously described in Katz et al., 1995). The NDS range is a scale between 0 (normal function) to 100 (brain dead). […]

[5] = tested on: arctic ground squirrel (AGS); experiment: CHA-induced torpor and hypothermic response in arctic ground squirrel; assay type: in vivo; conditions: CHA 0.1 mg/kg i.p.; trough vs peak in euthermic Tb,sc; p<0.05, n=6; FIG. 2B
Excerpt: Adenosine is a neuroprotective by-product of cellular metabolism that accumulates and is released from the brain during traumatic events (Dunwiddie and Masino, 2001). Under nonpathologic conditions, adenosine functions as a bioenergetic network regulator (Boison et al., 2011), and as a neuromodulator with key roles in sleep, thermoregulation and hibernation (Drew and Jinka, 2012) via a family of G protein-coupled receptors (GPCR). Torpor onset in the arctic ground squirrel (AGS) is regulated within the CNS by A1AR signaling and depends on a seasonal change in sensitivity to agonists (Jinka et al., 2011). […] Moreover, CHA-induced torpor is similar to spontaneous torpor with regard to the magnitude and temporal profile of metabolic suppression and Tb decline. A seasonally regulated decrease in Tb during rest in euthermic (non-hibernating) AGS predicts onset of torpor and an increased hypothermic response to CHA. Thus, Tb in animals at rest is a biomarker of enhanced sensitivity to A1AR signaling (FIG. 2). This relationship between Tb and sensitivity to CHA is observed in rats as well as in AGS as disclosed herein.
Spontaneous torpor is indicated by abrupt decreases in Tb,sc below about 30° C.

[6] = tested on: dietary restricted (DR) rats; experiment: Induction of hypothermia by intermittent CHA and 8-SPT in ad libitum fed and dietary restricted rats; assay type: in vivo, rat
Description: First, shivering is alleviated through stimulation of central A1AR. Second, the Tb minimum and rate of cooling following stimulation of A1AR in the CNS can be controlled through manipulation of ambient temperature without external or internal cooling. These principles were used to develop methods for inducing hypothermia in dietary restricted (DR) rats (FIG. 3B). In FIG. 3, the magnitude and rate of cooling was controlled by adjusting ambient temperature (i.e., 16° C.) and regulating sensitivity to CHA through DR (every other day feeding, see FIG. 3B). Peripheral side effects were minimized by co-administration of 8-SPT (2.5 mg/kg i.p.) 15 min prior to CHA (0.5 mg/kg, i.p.). […].

[7] = tested on: arctic ground squirrel (AGS); conditions: CHA i.p. or into the lateral ventricle (icv), cited from earlier work
[8] = stated as approximated by the 4 hr injection interval; cited from earlier work
[9] = 8-SPT 25 mg/kg i.p. in CHA treated animals, Ta 25° C.

Cn1c(=O)c2[nH]c(-c3ccc(S(=O)(=O)O)cc3)nc2n(C)c1=O [8-SPT, 8-p-sulfophenyltheophylline]
influence on Tb (Male Sprague-Dawley rats [1]; 8-SPT 25 mg/kg i.p. in CHA treated animals, Ta 16° C.): no influence on Tb
heart rate (Male Sprague-Dawley rats [1]; [9]): small, but significant increase
influence on Tb (Male Sprague-Dawley rats [1]; [9]): no influence on Tb
increase in heart rate (Male Sprague-Dawley rats [1]; 8-SPT 25 mg/kg i.p. in animals treated with continuous CHA, Ta 16° C.): 2 fold
heart rate in control animals (Male Sprague-Dawley rats [1]; 8-SPT in control (CD treated) animals, Ta 16° C., saline vehicle did the same): increased heart rate
heart rate or Tb in control animals (Male Sprague-Dawley rats [1]; 8-SPT in control (CD treated) animals, Ta 25° C.): no effect on heart rate or Tb
time for effects of 8-SPT to subside (Male Sprague-Dawley rats [1]; after 8-SPT 25 mg/kg i.p., Ta 16° C.): ≤ 60 min
half-life [2]: 0.75 h

OC[C@H]1O[C@@H](n2cnc3c(NC4CCCCC4)ncnc32)[C@H](O)[C@@H]1O [CHA, N^6-cyclohexyladenosine]
Tb on repeated injection (Male Sprague-Dawley rats [3]; CHA 1.0 mg/kg i.p. at 4 hr intervals, 6 injections, 8-SPT 15 min prior, Ta 16° C.): steady minimum in Tb after the fourth injection
Tb decreased to (Male Sprague-Dawley rats [3]; CHA 1.0 mg/kg i.p., 8-SPT 25 mg/kg i.p. 15 min prior, Ta 16° C., FIG. 4A): 33 °C
time to decrease of Tb to 33° C. (Male Sprague-Dawley rats [3]; CHA 1.0 mg/kg i.p., 8-SPT 15 min prior, Ta 16° C.): ≤ 1 h
heart rate at 24 hr (Male Sprague-Dawley rats [3]; CHA-treated rats, 4 hr after last 8-SPT and CHA injection, FIG. 4C): slight, but statistically significant bradycardia
time to rewarm after moving to Ta of 20° C. (Male Sprague-Dawley rats [3]; after 6 injections of CHA and 8-SPT, no other means of rewarming): ≤ 3.5 h
adverse events after rewarming (Male Sprague-Dawley rats [3]; after 24 hr CHA and 8-SPT at Ta 16° C.): without evidence of significant adverse events
heart rate 5.5 hr after the last CHA injection (Male Sprague-Dawley rats [3]; after rewarming, FIG. 4C): remained significantly elevated
neurological deficit scores (NDS) (Male Sprague-Dawley rats [3]; during hypothermia, FIG. 4B): increased
sO2 (Male Sprague-Dawley rats [1]; continuous CHA at Ta 16° C. and 25° C.): no effect
heart rate (Male Sprague-Dawley rats [1]; continuous CHA at Ta 16° C. and 25° C. vs CD vehicle, p<0.01): decreased
mean minimum Tb (Male Sprague-Dawley rats [1]; Ta 16° C.): 29.3±0.3 °C
mean minimum Tb (Male Sprague-Dawley rats [1]; Ta 25° C.): 35.6±0.12 °C
number of healthy neurons per mm of CA1 (mean±SEM) ([4]; TH group n=3, 8 days after 8 min asphyxial CA, naïve 180.8±12.3, normothermic control 47.8): 135.5±4.6
survival to 8 days ([4]; TH group, n=3, 1 of 3 survived in normothermic control group): 3 rats
individual Tb minima ([4]; TH group, n=3): 29.7±0.3 °C
time to Tb of 31.0 to 31.6° C. after CHA injection ([4]; TH group, n=3): ≤ 3 h
time to rewarm without intervention after transfer to Ta of 20° C. ([4]; TH group, transfer 4 hr after last CHA injection): ≤ 5 h
time at which Tb reached a minimum after ROSC ([4]; cooling initiated 70 min post ROSC): 12 h
post-operative recovery ([4]; hypothermia group): recovered without need for post-op care
maximal response to a low (non-torpor inducing) dose [5]: greater when tested during a trough than when tested during a peak
magnitude of cooling at a given dose ([6]; dietary restriction (every other day feeding) vs ad libitum, CHA 0.5 mg/kg with 8-SPT): enhanced following DR
Tb in conscious rats ([6]; repeated co-administration: 8-SPT 2.5 mg/kg i.p. 15 min prior to CHA 0.5 mg/kg i.p., 4 hr intervals, Ta 16° C.): immediate decrease in Tb
torpor induction in summer ([7]; summer): not in summer
torpor induction in winter ([7]; winter): induces torpor
half-life [8]: ~4 h
